Results from publication PMC11324046, “Second-generation piperazine derivatives as promising radiation countermeasures” (RSC Medicinal Chemistry, 2024).
“Also recorded” adds a separate entry of the source.

Legend:
[1] = WST-1 proliferation assay, Jurkat; assay type: cell-based; conditions: human, Jurkat cells (acute T-cell leukemia), vs 0.1% DMSO control = 100%, mean ± standard deviation
Method: (§1) A thorough analysis of antiproliferative activity was performed across various cell culture types representing different histotypes: leukemia (Jurkat, MOLT-4), lung adenocarcinoma (A549), colorectal adenocarcinoma (HT-29), pancreatic carcinoma (PANC-1), breast adenocarcinoma (MCF-7), osteosarcoma (SAOS-2), and one non-cancerous cell line (fetal lung fibroblasts MRC-5). The cell lines were exposed to the newly synthesized compounds at a concentration of 100 μM for 48 h in a single-dose treatment. Changes in cell proliferation compared to the vehicle 0.1% dimethyl sulfoxide (DMSO) control were determined using the WST-1 assay, which is based on mitochondrial dehydrogenase metabolic activities. […] The overall cytotoxic activity of each compound was expressed as growth percent (GP) – the mean of the proliferation of all cell lines treated with the same compound.
(§2) Selected human tumor and non-tumor cell lines Jurkat (acute T-cell leukemia), MOLT-4 (acute lymphoblastic leukemia), A549 (lung carcinoma), HT-29 (colorectal adenocarcinoma), PANC-1 (pancreas epithelioid carcinoma), MCF-7 (breast adenocarcinoma), SAOS-2 (osteosarcoma) and MRC-5 (normal lung fibroblasts) were purchased from either American Type Culture Collection (ATCC; VA, USA) or Sigma-Aldrich (St. Louis, MO, USA) and cultured according to the provider's culture method guidelines. All cell lines were maintained at 37 °C in a humidified 5% carbon dioxide and 95% air incubator. Cells in the maximum range of either 10 passages for the adherent cell lines (A549, HT-29, PANC-1, MCF-7, SAOS-2, and MRC-5), or 20 passages for suspension cell lines (Jurkat, MOLT-4,) and in an exponential growth phase were used for this study. Screening of the antiproliferative effect and growth percent calculation were conducted as follows: each cell line was seeded at previously established optimal density (1–50 × 10^3 cells per well) in a 96-well plate (TPP, Trasadingen, Switzerland) and cells were allowed to settle overnight. Cells were treated for 48 h with compounds at a final concentration of 100 μM. At the end of the cultivation period, the WST-1 proliferation assay (Roche, Basel, Switzerland) was performed according to the manufacturer's protocol. The absorbance was measured at 440 nm using a Tecan Spark multimode microplate reader (Tecan, Mannedorf, Switzerland). Each value is the mean of three independent experiments and represents the percentage of proliferation (100% cell proliferation for 0.1% DMSO mock-treated control cells). The GP value was calculated for each compound tested. GP represents the mean of the percentage proliferation decrease of all cell lines treated with the same compound.

[2] = WST-1 proliferation assay, PANC-1; assay type: cell-based; conditions: human, PANC-1 cells (pancreas epithelioid carcinoma), vs 0.1% DMSO control = 100%, mean ± standard deviation
Method: as §1, §2

[3] = WST-1 proliferation assay, MCF-7; assay type: cell-based; conditions: human, MCF-7 cells (breast adenocarcinoma), vs 0.1% DMSO control = 100%, mean ± standard deviation
Method: as §1, §2

[4] = system: panel of human cell lines; assay: Overall cytotoxicity screening across the cell line panel (growth percent); assay type: cell-based; conditions: 100 μM, 48 h, single-dose treatment, WST-1
Method: as §1
Selected human tumor and non-tumor cell lines Jurkat (acute T-cell leukemia), MOLT-4 (acute lymphoblastic leukemia), A549 (lung carcinoma), HT-29 (colorectal adenocarcinoma), PANC-1 (pancreas epithelioid carcinoma), MCF-7 (breast adenocarcinoma), SAOS-2 (osteosarcoma) and MRC-5 (normal lung fibroblasts) were purchased from either American Type Culture Collection (ATCC; VA, USA) or Sigma-Aldrich (St. Louis, MO, USA) and cultured according to the provider's culture method guidelines. […]

[5] = WST-1 proliferation assay, HT-29; assay type: cell-based; conditions: human, HT-29 cells (colorectal adenocarcinoma), vs 0.1% DMSO control = 100%, mean ± standard deviation
Method: as §1, §2

[6] = WST-1 proliferation assay, A549; assay type: cell-based; conditions: human, A549 cells (lung carcinoma), vs 0.1% DMSO control = 100%, mean ± standard deviation
Method: as §1, §2

[7] = WST-1 proliferation assay, MOLT-4; assay type: cell-based; conditions: human, MOLT-4 cells (acute lymphoblastic leukemia), vs 0.1% DMSO control = 100%, mean ± standard deviation
Method: as §1, §2

[8] = WST-1 proliferation assay, SAOS-2; assay type: cell-based; conditions: human, SAOS-2 cells (osteosarcoma), vs 0.1% DMSO control = 100%, mean ± standard deviation
Method: as §1, §2

[9] = WST-1 proliferation assay, MRC-5; assay type: cell-based; conditions: human, MRC-5 cells (normal lung fibroblasts), vs 0.1% DMSO control = 100%, mean ± standard deviation
Method: as §1, §2

[10] = system: mice; design: method as in PMID 29852368; conditions: 200 mg kg^−1 dose; cited from earlier work

| SMILES | viability at 48 h, 100 µM [1] [%] | viability at 48 h, 100 µM [2] [%] | viability at 48 h, 100 µM [3] [%] | Overall cytotoxic activity across cell lines (in words) [4] | viability at 48 h, 100 µM [5] [%] | viability at 48 h, 100 µM [6] [%] | viability at 48 h, 100 µM [7] [%] | viability at 48 h, 100 µM [8] [%] | viability at 48 h, 100 µM [9] [%] | Survival of mice (in words) [10] |
| --- | --- | --- | --- | --- | --- | --- | --- | --- | --- | --- |
| OCCN1CCN(CC(O)COc2cc(Cl)c(Cl)cc2Cl)CC1 (stereo not shown) [Compound 8, 1-(4-(2-Hydroxyethyl)piperazin-1-yl)-3-(2,4,5-trichlorophenoxy)propan-2-ol] | 28 ± 4 | 101 ± 2 | 41 ± 7 | severe toxicity to most of the tested cell lines; also recorded: exhibited stand-alone cytotoxicity | 33 ± 3 | 92 ± 12 | 41 ± 8 | 42 ± 5 | 15 ± 10 |  |
| O=C1N=C(N2CCN(CCO)CC2)S/C1=C\c1ccc(-c2ccccc2)cc1 [CLZ-8] |  |  |  |  |  |  |  |  |  | significantly improved their survival |
| OCCN1CCN(CC(O)COc2ccc(Oc3ccc(F)cc3)cc2)CC1 (stereo not shown) [Compound 7, 1-(4-(2-Hydroxyethyl)piperazin-1-yl)-3-(4-(4-fluorophenoxy)phenoxy)propan-2-ol] | 2 | 55 ± 6 | 7 ± 7 | severe toxicity to most of the tested cell lines; also recorded: exhibited stand-alone cytotoxicity | 12 ± 2 | 6 ± 2 | 6 ± 5 | 15 ± 5 | 0 |  |
